Common to all, as to assay: NCI anticancer screen, dose series, 48 h
For experiment [1], the system named is NCI-H23 lung.
In experiment [2] the test system is MALME-3M melanoma.
The test system of experiment [3] is SR leukemia.
Experiment [4] relates to LOX IMVI melanoma.
The test system of experiment [5] is IGROV1 ovarian.
The test system of experiment [6] is SK-MEL-28 melanoma.
Experiment [7] concerns SF-268 CNS.
In experiment [8] the test system is OVCAR-4 ovarian.
The subject of experiment [9] is SNB-75 CNS.
Experiment [10] relates to NCI-H522 lung.

Several values for one entry are separate records, joined by “and”; a condition that tells them apart may be missing. Equal entries are not always repeated.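 These data come from cells grown in 96-well plates and exposed to compound for 48 hours at five concentrations. Here, GI50 denotes the concentration required for 50% inhibition of growth. Definition used: TGI = concentration required for complete inhibition of growth.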

In the case of `NC(=O)C(c1ccccc1)N1CCOCC1` (stereo not given), the TGI in experiment [1], in [2], in experiment [3], in [4], in experiment [5] and in experiment [6] was greater than 100 µM in each case. The TGI in experiment [7], in [8], in [9] and in [10] was greater than 100 µM in each case.

For the molecule `Cc1cc(Nc2ncnc3ccc(NC4=NC(C)(C)CO4)cc23)ccc1Oc1ccn2ncnc2c1`, the GI50 in experiment [1] was 17 µM and > 10 µM; in experiment [2], 14.7 µM and > 10 µM; in experiment [3], 14.7 µM and > 10 µM; in [4], 13.4 µM and > 10 µM; in [5], 12.5 µM and > 10 µM; in experiment [6], 13.2 µM and > 10 µM. In addition, the GI50 was 18.9 µM and > 10 µM in experiment [7]; 15.1 µM and > 10 µM in experiment [8]; 15.6 µM and > 10 µM in experiment [9]; 2.44 µM and > 10 µM in experiment [10]. Besides, the TGI in experiment [1] was 41.7 µM and > 10 µM; in experiment [2], 35.7 µM and > 10 µM; in experiment [3], 43.8 µM and > 10 µM; in experiment [4], 31.3 µM and > 10 µM; in experiment [5] it was greater than 100 µM; in [6], 29.3 µM and > 10 µM. Besides, the TGI in experiment [7] is greater than 91.9 µM; in [8], 99 µM and > 10 µM; in experiment [9] it was 51.9 µM and > 10 µM; in experiment [10], 21.1 µM and > 10 µM.

As to `CCSC1=C(C)N(C=NC(C)(C)C)CC1`, the TGI in experiment [1], in experiment [2], in experiment [3], in [4], in experiment [5] and in [6] was greater than 100 µM in each case. Further, the TGI in experiment [7], in [8], in experiment [9] and in experiment [10] was greater than 100 µM throughout.

Regarding `CC(=O)OCC1OC(OC2CC3C(C)(C)C(O)CC[C@]3(C)C3CCC45CC4(CC[C@H]5C(C)CC(O)C4OC4(C)C)[C@]23C)C(O)C(O)C1O` (stereo not given in full), the GI50 in experiment [1] was 12.2 µM; in experiment [2], 4.52 µM; in [3], 1.93 µM; in experiment [4] it was 1.52 µM; in experiment [5], 5.91 µM; in [6], 8.37 µM. Further, the GI50 in [7] was 11 µM; in experiment [8] it was 13.9 µM; in experiment [9] it was 13.7 µM; in experiment [10], 5.75 µM. The TGI was 16.5 µM and 27.5 µM in experiment [1]; 16.5 µM and 20.8 µM in experiment [2]; 3.53 µM and 4.13 µM in experiment [3]; 12.1 µM and 3.17 µM in experiment [4]; 7.61 µM and 15.6 µM in experiment [5]; 14.3 µM and 21.3 µM in experiment [6]. Besides, the TGI in experiment [7] was 13.4 µM and 28.4 µM; in [8] it was 15.8 µM and 30.7 µM; in experiment [9], 15 µM and 26.6 µM; in experiment [10], 11.8 µM and 19 µM.

With `O=C(N/N=C/c1ccc([N+](=O)[O-])cc1)c1ccc2nc(-c3ccc(Cl)cc3)[nH]c2c1`, the GI50 in experiment [1] is 1.85 µM; in experiment [2], 1.48 µM; in experiment [3] it was 0.566 µM; in experiment [4], 1.34 µM; in experiment [5], 3.04 µM; in experiment [6], 2.6 µM. Moreover, the GI50 was 4.97 µM in experiment [7], 2.75 µM in experiment [8], 2.78 µM in [9] and 3.05 µM in experiment [10]. The TGI in experiment [1] worked out at 11.5 µM; in experiment [2], 5 µM; in [3] it was 4.87 µM; in experiment [4], 3.22 µM; in experiment [5], 11.4 µM; in [6] it was 10.3 µM. The TGI in [7] is 24.3 µM; in experiment [8], 8.64 µM; in experiment [9] it was 18 µM; in experiment [10], 11.7 µM.

`O=C(Cc1cccc(OC(F)(F)F)c1)Nc1ccc(CCCCc2nnc(NC(=O)Cc3ccccn3)s2)nn1`: the GI50 in experiment [1] is 13.1 µM; in experiment [2] it was 28.6 µM; in experiment [3], 33.7 µM; in experiment [4], 25.9 µM; in [5] it was 17.3 µM; in [6], 93.1 µM. The GI50 is 13.6 µM in [7], 7.23 µM in experiment [8], 11.1 µM in experiment [9] and 12.2 µM in [10]. Further, the TGI in [1] was 45.8 µM; in [2], greater than 100 µM; in [3] it was greater than 100 µM; in [4] it was greater than 100 µM; in experiment [5], greater than 100 µM; in [6], greater than 100 µM. In addition, the TGI was found to be 39.1 µM in experiment [7], 29 µM in [8], 38.6 µM in experiment [9] and 40.1 µM in [10].

As to `Cc1cc(C)c(O)c(CN(C)Cc2cc(Cl)cc(Cl)c2O)c1`, the GI50 in experiment [1] was 3.91 µM; in experiment [2], 6.13 µM; in experiment [3], 3.69 µM; in experiment [4], 4.06 µM; in experiment [5] it was 2.2 µM; in experiment [6] it was 11.4 µM. Moreover, the GI50 in [7] is 3.26 µM; in experiment [8], 2.62 µM; in [9], 11.5 µM; in [10] it was 2.22 µM. The TGI in experiment [1] is 17.3 µM; in [2], 20.6 µM; in experiment [3] it was 24.5 µM; in experiment [4], 17.1 µM; in experiment [5], 8.85 µM; in experiment [6], 24 µM. For the same molecule, the TGI in experiment [7] was determined as 19.2 µM; in experiment [8], 10.6 µM; in experiment [9] it was 36.4 µM; in experiment [10], 6.14 µM.

Take `COc1ccc(C(=O)c2cc3c(OC)c(OC)c(OC)cc3[nH]2)cc1`: the GI50 in experiment [1] was 6.25 µM; in experiment [2] it was 5.8 µM; in [3] it was 0.295 µM; in experiment [4], 4.91 µM; in [5], 9.68 µM; in [6], 8.79 µM. For the same molecule, the GI50 in experiment [7] is 68.1 µM; in experiment [8] it was greater than 100 µM; in experiment [9], 6.84 µM; in experiment [10] it was 1.55 µM. Further, the TGI is greater than 100 µM in experiment [1]; greater than 100 µM in [2]; 2.57 µM in [3]; greater than 100 µM in experiment [4]; greater than 100 µM in experiment [5]; greater than 100 µM in experiment [6]. The TGI in [7] was greater than 100 µM; in [8], greater than 100 µM; in [9], 28.5 µM; in experiment [10], 6.04 µM.

Source of the values: PubChem BioAssay (NCI).
